Source: PubChem BioAssay (NCI)
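Each compound was tested at five concentrations against cells in 96-well plates for 48 hours. At the GI50, growth is halved. TGI: total growth inhibition.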

Legend:
Test in all cases: NCI anticancer screen, dose series, 48 h
786-0 renal = system: 786-0 renal
A498 renal = system: A498 renal
A549 NSCLC = system: A549 NSCLC
ACHN renal = system: ACHN renal
CAKI-1 renal = system: CAKI-1 renal
CCRF-CEM leukemia = system: CCRF-CEM leukemia
COLO 205 colon = system: COLO 205 colon
DU-145 prostate = system: DU-145 prostate
EKVX NSCLC = system: EKVX NSCLC
HCC-2998 colon = system: HCC-2998 colon
HCT-116 colon = system: HCT-116 colon
HCT-15 colon = system: HCT-15 colon
HL-60(TB) leukemia = system: HL-60(TB) leukemia
HOP-62 NSCLC = system: HOP-62 NSCLC
HT29 colon = system: HT29 colon
IGROV1 ovarian = system: IGROV1 ovarian
K-562 leukemia = system: K-562 leukemia
KM12 colon = system: KM12 colon
LOX IMVI melanoma = system: LOX IMVI melanoma
M14 melanoma = system: M14 melanoma
MALME-3M melanoma = system: MALME-3M melanoma
MCF7 breast = system: MCF7 breast
MDA-MB-231 breast = system: MDA-MB-231 breast
MDA-MB-435 = system: MDA-MB-435
MDA-N = system: MDA-N
MOLT-4 leukemia = system: MOLT-4 leukemia
NCI-H226 lung = system: NCI-H226 lung
NCI-H23 lung = system: NCI-H23 lung
NCI-H460 lung = system: NCI-H460 lung
NCI-H522 lung = system: NCI-H522 lung
NCI/ADR-RES ovarian = system: NCI/ADR-RES ovarian
OVCAR-3 ovarian = system: OVCAR-3 ovarian
OVCAR-4 ovarian = system: OVCAR-4 ovarian
OVCAR-5 ovarian = system: OVCAR-5 ovarian
OVCAR-8 ovarian = system: OVCAR-8 ovarian
PC-3 prostate = system: PC-3 prostate
RXF 393 renal = system: RXF 393 renal
SF-268 CNS = system: SF-268 CNS
SF-295 CNS = system: SF-295 CNS
SF-539 CNS = system: SF-539 CNS
SK-MEL-2 melanoma = system: SK-MEL-2 melanoma
SK-MEL-28 melanoma = system: SK-MEL-28 melanoma
SK-MEL-5 melanoma = system: SK-MEL-5 melanoma
SK-OV-3 ovarian = system: SK-OV-3 ovarian
SN12C renal = system: SN12C renal
SNB-19 CNS = system: SNB-19 CNS
SNB-75 CNS = system: SNB-75 CNS
SR leukemia = system: SR leukemia
SW-620 colon = system: SW-620 colon
T-47D breast = system: T-47D breast
TK-10 renal = system: TK-10 renal
U251 CNS = system: U251 CNS
UACC-257 melanoma = system: UACC-257 melanoma
UACC-62 melanoma = system: UACC-62 melanoma
UO-31 renal = system: UO-31 renal
BT-549 breast = system: BT-549 breast
HOP-92 NSCLC = system: HOP-92 NSCLC
HS 578T breast = system: HS 578T breast
RPMI-8226 leukemia = system: RPMI-8226 leukemia

Compound: COc1ccc(/C=N/Nc2nc3ccccc3c(=O)n2-c2ccccc2)cc1
- TGI (786-0 renal): > 100 µM
- TGI (A498 renal): > 100 µM
- TGI (A549 NSCLC): > 100 µM
- TGI (ACHN renal): > 100 µM
- TGI (CAKI-1 renal): > 100 µM
- TGI (CCRF-CEM leukemia): > 100 µM
- TGI (COLO 205 colon): > 100 µM
- TGI (DU-145 prostate): > 100 µM
- TGI (EKVX NSCLC): > 100 µM
- TGI (HCC-2998 colon): > 100 µM
- TGI (HCT-116 colon): > 100 µM
- TGI (HCT-15 colon): > 100 µM
- TGI (HL-60(TB) leukemia): > 100 µM
- TGI (HOP-62 NSCLC): > 100 µM
- TGI (HT29 colon): > 100 µM
- TGI (IGROV1 ovarian): > 100 µM
- TGI (K-562 leukemia): > 100 µM
- TGI (KM12 colon): > 100 µM
- TGI (LOX IMVI melanoma): > 100 µM
- TGI (M14 melanoma): > 100 µM
- TGI (MALME-3M melanoma): > 100 µM
- TGI (MCF7 breast): 40.5 µM
- TGI (MDA-MB-231 breast): > 100 µM
- TGI (MDA-MB-435): > 100 µM
- TGI (MDA-N): > 100 µM
- TGI (MOLT-4 leukemia): > 100 µM
- TGI (NCI-H226 lung): > 100 µM
- TGI (NCI-H23 lung): > 100 µM
- TGI (NCI-H460 lung): > 100 µM
- TGI (NCI-H522 lung): > 100 µM
- TGI (NCI/ADR-RES ovarian): > 100 µM
- TGI (OVCAR-3 ovarian): > 100 µM
- TGI (OVCAR-4 ovarian): > 100 µM
- TGI (OVCAR-5 ovarian): > 100 µM
- TGI (OVCAR-8 ovarian): > 100 µM
- TGI (PC-3 prostate): > 100 µM
- TGI (RXF 393 renal): > 100 µM
- TGI (SF-268 CNS): > 100 µM
- TGI (SF-295 CNS): > 100 µM
- TGI (SF-539 CNS): > 100 µM
- TGI (SK-MEL-2 melanoma): > 100 µM
- TGI (SK-MEL-28 melanoma): > 100 µM
- TGI (SK-MEL-5 melanoma): > 100 µM
- TGI (SK-OV-3 ovarian): > 100 µM
- TGI (SN12C renal): > 100 µM
- TGI (SNB-19 CNS): > 100 µM
- TGI (SNB-75 CNS): > 100 µM
- TGI (SR leukemia): > 100 µM
- TGI (SW-620 colon): > 100 µM
- TGI (T-47D breast): > 100 µM
- TGI (TK-10 renal): > 100 µM
- TGI (U251 CNS): > 100 µM
- TGI (UACC-257 melanoma): > 100 µM
- TGI (UACC-62 melanoma): > 100 µM
- TGI (UO-31 renal): 14.9 µM

Compound: Cc1ccc2c(c1)/C(=N\N=C/c1cn(C(C)C)c3ccccc13)C(=O)N2
- GI50 (786-0 renal): 18.6 µM
- TGI (786-0 renal): > 100 µM
- GI50 (A498 renal): 1.6 µM
- TGI (A498 renal): > 100 µM
- GI50 (A549 NSCLC): 5.66 µM
- TGI (A549 NSCLC): > 100 µM
- GI50 (ACHN renal): 2.95 µM
- TGI (ACHN renal): > 100 µM
- GI50 (BT-549 breast): 3.58 µM
- TGI (BT-549 breast): > 100 µM
- GI50 (CAKI-1 renal): 2.6 µM
- TGI (CAKI-1 renal): > 100 µM
- GI50 (CCRF-CEM leukemia): 0.367 µM
- TGI (CCRF-CEM leukemia): > 100 µM
- GI50 (COLO 205 colon): 0.324 µM
- TGI (COLO 205 colon): 2.08 µM
- GI50 (DU-145 prostate): 8.17 µM
- TGI (DU-145 prostate): > 100 µM
- GI50 (EKVX NSCLC): 22 µM
- TGI (EKVX NSCLC): > 100 µM
- GI50 (HCC-2998 colon): 2.42 µM
- TGI (HCC-2998 colon): 14.9 µM
- GI50 (HCT-116 colon): 1.09 µM
- TGI (HCT-116 colon): > 100 µM
- GI50 (HCT-15 colon): 2.12 µM
- TGI (HCT-15 colon): > 100 µM
- GI50 (HL-60(TB) leukemia): 1.95 µM
- TGI (HL-60(TB) leukemia): 6.17 µM
- GI50 (HOP-62 NSCLC): 28.4 µM
- TGI (HOP-62 NSCLC): > 100 µM
- GI50 (HOP-92 NSCLC): 1.73 µM
- TGI (HOP-92 NSCLC): 67.2 µM
- GI50 (HS 578T breast): 10.6 µM
- TGI (HS 578T breast): > 100 µM
- GI50 (HT29 colon): 2.82 µM
- TGI (HT29 colon): > 100 µM
- GI50 (IGROV1 ovarian): 1.37 µM
- TGI (IGROV1 ovarian): > 100 µM
- GI50 (K-562 leukemia): 1.96 µM
- TGI (K-562 leukemia): > 100 µM
- GI50 (KM12 colon): 5.5 µM
- TGI (KM12 colon): > 100 µM
- GI50 (LOX IMVI melanoma): 2.55 µM
- TGI (LOX IMVI melanoma): 25.2 µM
- GI50 (M14 melanoma): 3.95 µM
- TGI (M14 melanoma): > 100 µM
- GI50 (MALME-3M melanoma): 1.38 µM
- TGI (MALME-3M melanoma): 9.81 µM
- GI50 (MCF7 breast): 0.504 µM
- TGI (MCF7 breast): > 100 µM
- GI50 (MDA-MB-231 breast): 1.25 µM
- TGI (MDA-MB-231 breast): 5.83 µM
- GI50 (MDA-MB-435): 2.16 µM
- TGI (MDA-MB-435): 10.3 µM
- GI50 (MOLT-4 leukemia): 0.252 µM
- TGI (MOLT-4 leukemia): 0.753 µM
- GI50 (NCI-H226 lung): 2.67 µM
- TGI (NCI-H226 lung): > 100 µM
- GI50 (NCI-H23 lung): 4.56 µM
- TGI (NCI-H23 lung): > 100 µM
- GI50 (NCI-H460 lung): 0.833 µM
- TGI (NCI-H460 lung): 13.1 µM
- GI50 (NCI-H522 lung): 1.05 µM
- TGI (NCI-H522 lung): > 100 µM
- GI50 (NCI/ADR-RES ovarian): 73 µM
- TGI (NCI/ADR-RES ovarian): > 100 µM
- GI50 (OVCAR-3 ovarian): 0.311 µM
- TGI (OVCAR-3 ovarian): 31.9 µM
- GI50 (OVCAR-4 ovarian): 0.277 µM
- TGI (OVCAR-4 ovarian): > 100 µM
- GI50 (OVCAR-5 ovarian): 35.1 µM
- TGI (OVCAR-5 ovarian): > 100 µM
- GI50 (OVCAR-8 ovarian): 4.7 µM
- TGI (OVCAR-8 ovarian): > 100 µM
- GI50 (PC-3 prostate): 0.723 µM
- TGI (PC-3 prostate): 45.3 µM
- GI50 (RPMI-8226 leukemia): 0.396 µM
- TGI (RPMI-8226 leukemia): 7.31 µM
- GI50 (RXF 393 renal): 4.31 µM
- TGI (RXF 393 renal): > 100 µM
- GI50 (SF-268 CNS): 4.9 µM
- TGI (SF-268 CNS): > 100 µM
- GI50 (SF-295 CNS): > 100 µM
- TGI (SF-295 CNS): > 100 µM
- GI50 (SF-539 CNS): 2.9 µM
- TGI (SF-539 CNS): > 100 µM
- GI50 (SK-MEL-2 melanoma): 2.3 µM
- TGI (SK-MEL-2 melanoma): 23 µM
- GI50 (SK-MEL-28 melanoma): 21.9 µM
- TGI (SK-MEL-28 melanoma): > 100 µM
- GI50 (SK-MEL-5 melanoma): 4.57 µM
- TGI (SK-MEL-5 melanoma): > 100 µM
- GI50 (SK-OV-3 ovarian): > 100 µM
- TGI (SK-OV-3 ovarian): > 100 µM
- GI50 (SN12C renal): 4.47 µM
- TGI (SN12C renal): > 100 µM
- GI50 (SNB-19 CNS): 7.18 µM
- TGI (SNB-19 CNS): > 100 µM
- GI50 (SNB-75 CNS): 3.2 µM
- TGI (SNB-75 CNS): > 100 µM
- GI50 (SR leukemia): 0.261 µM
- TGI (SR leukemia): > 100 µM
- GI50 (SW-620 colon): 0.937 µM
- TGI (SW-620 colon): > 100 µM
- GI50 (T-47D breast): 0.953 µM
- TGI (T-47D breast): > 100 µM
- GI50 (TK-10 renal): 15 µM
- TGI (TK-10 renal): > 100 µM
- GI50 (U251 CNS): 3.9 µM
- TGI (U251 CNS): > 100 µM
- GI50 (UACC-257 melanoma): 5.05 µM
- TGI (UACC-257 melanoma): > 100 µM
- GI50 (UACC-62 melanoma): 2.69 µM
- TGI (UACC-62 melanoma): > 100 µM
- GI50 (UO-31 renal): 1.98 µM
- TGI (UO-31 renal): > 100 µM
